ChEMBL document CHEMBL1151253, “Further membranolide diterpenes from the antarctic sponge dendrilla membranosa” (2004)

Tests used:
Type in all cases: functional
Settings in all cases: read-out: IZ
Candida albicans = test: Antifungal activity against Candida albicans at 200 ug/disk after 24 hrs by disk diffusion method
Escherichia coli = test: Antibiotic activity against Escherichia coli at 200 ug/disk after 24 hrs by disk diffusion method
Staphylococcus aureus = test: Antibiotic activity against Staphylococcus aureus at 200 ug/disk after 24 hrs by disk diffusion method

`CO[C@H]1O[C@@H](OC)c2c1ccc([C@@]1(C)CCCC(C)(C)C1)c2[C@@H](C)C(=O)O` [MEMBRANOLIDE D] was tested, and the zone of inhibition at 200 µg/disc (Candida albicans) was 9 mm, the zone of inhibition at 200 µg/disc (Escherichia coli) was 6 mm and the zone of inhibition at 200 µg/disc (Staphylococcus aureus) was 7 mm.

`CO[C@@H]1O[C@@H](OC)c2c1ccc([C@@]1(C)CCCC(C)(C)C1)c2[C@@H](C)C(=O)O` [MEMBRANOLIDE C] showed a zone of inhibition at 200 µg/disc (Candida albicans) of 4 mm, a zone of inhibition at 200 µg/disc (Escherichia coli) of 8 mm and a zone of inhibition at 200 µg/disc (Staphylococcus aureus) of 0 mm.
